Values of other authors in patent US20210121528A1, “COMPOSITIONS FOR TREATING LUNG INFECTIONS BY AIRWAY ADMINISTRATION” (priority 2014, published 2021).
Where two headings read alike, the source gives them in different places.

Columns and labels:
[1] = not given; remark: listed apart in the source
[2] = not given; remark: listed apart in the source
[3] = in vivo, po
[4] = test system: mammalian cells and organs
[5] = test system: strains of organisms from the susceptible genera
[6] = human, in vivo
[7] = test system: Staphylococcus, Streptococcus, Neisseria, Escherichia, Proteus (indole-negative), Serratia, Salmonella, Shigella, Pseudomonas, Haemophilus, Vibrio, and …; conditions: aerobic genera
[8] = test system: Veillonella and Fusobacterium; conditions: anaerobic genera
[9] = test system: polymorphonuclear leukocytes
[10] = test system: Moraxella catarrhalis, Burkholderia cepacia, Mycobacterium spp. and Stenotrophomonas maltophilia
[11] = test system: methicillin-resistant Staphylococcus aureus and extended spectrum 13-lactamase (ESBL) enterobacteria; conditions: resistant bacteria
Prevotella = conditions: anaerobic genus
macrophages = conditions: in vitro incubation
[12] = test system: lethal pneumococcal pneumonia; conditions: local delivery, mice

Molecule: C[C@@H]1O[C@@H]1P(=O)(O)O [Fosfomycin calcium monohydrate]
- pH of 0.4% solution (0.4% solution): 8.1-9.6
- irritation of the stomach / oral tolerability ([1]; in vivo, po): less irritating to the stomach
- solubility in water [2]: sparingly soluble

Molecule: C[C@@H]1O[C@@H]1P(=O)(O)O [Fosfomycin disodium]
- pH of 5% solution: 9.0-10.5
- irritation of the stomach / oral tolerability ([1]; in vivo, po): irritant to the stomach
- solubility in water [2]: highly soluble

Molecule: C[C@@H]1O[C@@H]1P(=O)(O)O.NC(CO)(CO)CO [Fosfomycin trometamol]
- bioavailability [3]: about 40%
- pH of 5% solution: 3.5-5.5
- irritation of the stomach / oral tolerability ([1]; oral): well tolerated
- solubility in water [2]: highly soluble

Molecule: C[C@@H]1O[C@@H]1P(=O)(O)O [fosfomycin, [(2R,3S)-3-methyloxiran-2-yl]phosphonic acid]
- toxicity to mammalian cells and organs [4]: remarkably non-toxic
- synergistic effect, share of tested strains ([5]; early studies, various antibiotic combinations): 70-100%
- synergy rates ([5]; subsequent more extensive studies): 36-74%
- eosinophilia [6]: 0.2%
- transient rashes [6]: 0.3 % of cases
- transiently raised liver enzymes [6]: 0.3 % of cases
- bactericidal activity [7]: active
- bactericidal activity [8]: active
- concentration in polymorphonuclear leukocytes relative to the extracellular fluid [9]: twice
- bactericidal activity [10]: less active
- bactericidal activity [11]: active
- bactericidal activity (Prevotella): moderately active

Molecule: GM-CSF: Monomeric protein of 127 amino-acid residues, colony-stimulating factor; SEQ ID NO: 2 mature human form
- time for transformation of a resting macrophage into a fully immunocompetent dendritic cell (macrophages): approximately 10 days
- protection from lethal pneumococcal pneumonia [12]: protects
